pIC50: −log10 of the molar value. Converted amounts (≈) assume the structure as drawn. Like-named read-outs stand apart in the source and are kept apart here.
Assays:
[1] = test system: C. krusei; experiment: Antifungal Activity Assay (broth microtiter MIC), C. krusei; type: cell-based, Candida krusei; settings: Pichia kudriavzevii, ATCC6258, 48 h
How it was run: (§1)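 Susceptibility was determined by CLSI M27-A3 broth microdilution in RPMI 1640 buffered with MOPS. Growth inhibition was scored visually after 48 h.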

[2] = test system: C. parapsilosis; experiment: Antifungal Activity Assay (broth microtiter MIC), C. parapsilosis; type: cell-based, Candida parapsilosis; settings: Lodderomyces parapsilosis, ATCC22019, 48 h
How it was run: as §1

[3] = test system: Rhizoctonia solani (Rs); experiment: Growth inhibition assay of fungal pathogens, Rs; type: cell-based; settings: 48 h
[4] = target: fungal (fACC2) (UniProt Q00955); settings: read-out: fACC2 (in vitro ACC2 Inhibition Assay, IC50), ADP-Glo, 5 nM ACC2, 20 μM ATP, 20 μM acetyl-CoA
[5] = test system: Botrtyis cinerea (Bc); experiment: Growth inhibition assay of fungal pathogens, Bc; type: cell-based; settings: 48 h
How it was run: (§2)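 Spore suspension in 17% V8 liquid media; cpd final 50/10/2 or 2/0.4/0.08 ppm, 2% DMSO. OD600 + visual, 24 & 48 h; % inhibition at 48 h vs 2% DMSO ctrl.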

[6] = test system: Phytophthora capsici (Pc); experiment: Growth inhibition assay of fungal pathogens, Pc; type: cell-based; settings: 48 h
How it was run: as §2

[7] = test system: Septoria tritici (St); experiment: Growth inhibition assay of fungal pathogens, St; type: cell-based; settings: Zymoseptoria tritici, 48 h
How it was run: as §2

[8] = test system: Fusarium moniliforme (Fm); experiment: Growth inhibition assay of fungal pathogens, Fm; type: cell-based; settings: for IC90: Fusarium verticillioides, 48 h, read-out: Concentration at 90% Inhibition Fm
How it was run: as §2

[9] = test system: Fusarium virguliforme (Fv); experiment: Growth inhibition assay of fungal pathogens, Fv; type: cell-based; settings: 48 h
How it was run: as §2

[10] = target: human (hACC2) (Homo sapiens, UniProt O00763); experiment: In vitro ACC inhibition assay (ADP-Glo), hACC2; type: biochemical; settings: 5 nM ACC2, 20 μM ATP, 20 μM acetyl-CoA
Protocol: The detailed procedure is as follows. […] 10 μL ADP glo reagent was added. […] 20 μL kinase detection reagent was added.

[11] = read-out: MIC, C. krusei ATCC 6258, Table 3a, 3 replicates, MIC recorded at 48 h
[12] = read-out: MIC, C. krusei ATCC 6258, Table 3b (additional results), 3 replicates, MIC recorded at 48 h
[13] = read-out: MIC, C. parapsilosis ATCC 22019, Table 3a, 3 replicates, MIC recorded at 48 h
[14] = read-out: MIC, C. parapsilosis ATCC 22019, Table 3b (additional results), 3 replicates, MIC recorded at 48 h
[15] = read-out: Concentration at 90% Inhibition Rs, Rhizoctonia solani, mycelial plugs, growth inhibition at 48 hours vs 2% DMSO control
[16] = read-out: Concentration at 90% Inhibition Rs, Rhizoctonia solani, mycelial plugs, growth inhibition vs 2% DMSO control at 48 hours
[17] = read-out: Concentration at 90% Inhibition Bc, Botrtyis cinerea, growth inhibition at 48 hours vs 2% DMSO control
[18] = read-out: Concentration at 90% Inhibition Bc, Botrtyis cinerea, growth inhibition vs 2% DMSO control at 48 hours
[19] = read-out: Concentration at 90% Inhibition Pc, Phytophthora capsici, growth inhibition at 48 hours vs 2% DMSO control
[20] = read-out: Concentration at 90% Inhibition Pc, Phytophthora capsici, growth inhibition vs 2% DMSO control at 48 hours
[21] = read-out: Concentration at 90% Inhibition St, Septoria tritici, growth inhibition at 48 hours vs 2% DMSO control
[22] = read-out: Concentration at 90% Inhibition St, Septoria tritici, growth inhibition vs 2% DMSO control at 48 hours
[23] = Fusarium moniliforme, growth inhibition at 48 hours vs 2% DMSO control
[24] = read-out: Concentration at 90% Inhibition Fv, Fusarium virguliforme, growth inhibition at 48 hours vs 2% DMSO control
[25] = read-out: Concentration at 90% Inhibition Fv, Fusarium virguliforme, growth inhibition vs 2% DMSO control at 48 hours
[26] = Table 3a, ATCC 6258, 3 replicates, MIC recorded at 48 h, read-out: MIC, C. krusei ATCC 6258
[27] = Table 3b (additional results), ATCC 6258, 3 replicates, MIC recorded at 48 h, read-out: MIC, C. krusei ATCC 6258
[28] = Table 3a, ATCC 22019, 3 replicates, MIC recorded at 48 h, read-out: MIC, C. parapsilosis ATCC 22019
[29] = Table 3b (additional results), ATCC 22019, 3 replicates, MIC recorded at 48 h, read-out: MIC, C. parapsilosis ATCC 22019
[30] = mycelial plugs, growth inhibition at 48 hours vs 2% DMSO control, read-out: Concentration at 90% Inhibition Rs
[31] = mycelial plugs, growth inhibition vs 2% DMSO control at 48 hours, read-out: Concentration at 90% Inhibition Rs
[32] = Botrtyis cinerea, growth inhibition at 48 hours vs 2% DMSO control, read-out: Concentration at 90% Inhibition Bc
[33] = Botrtyis cinerea, growth inhibition vs 2% DMSO control at 48 hours, read-out: Concentration at 90% Inhibition Bc
[34] = growth inhibition at 48 hours vs 2% DMSO control, read-out: Concentration at 90% Inhibition Pc
[35] = growth inhibition vs 2% DMSO control at 48 hours, read-out: Concentration at 90% Inhibition Pc
[36] = Septoria tritici, growth inhibition at 48 hours vs 2% DMSO control, read-out: Concentration at 90% Inhibition St
[37] = Septoria tritici, growth inhibition vs 2% DMSO control at 48 hours, read-out: Concentration at 90% Inhibition St
[38] = Fusarium moniliforme, growth inhibition vs 2% DMSO control at 48 hours
[39] = growth inhibition at 48 hours vs 2% DMSO control, read-out: Concentration at 90% Inhibition Fv
[40] = growth inhibition vs 2% DMSO control at 48 hours, read-out: Concentration at 90% Inhibition Fv

Sequence of fungal (fACC2) (Q00955 whole entry): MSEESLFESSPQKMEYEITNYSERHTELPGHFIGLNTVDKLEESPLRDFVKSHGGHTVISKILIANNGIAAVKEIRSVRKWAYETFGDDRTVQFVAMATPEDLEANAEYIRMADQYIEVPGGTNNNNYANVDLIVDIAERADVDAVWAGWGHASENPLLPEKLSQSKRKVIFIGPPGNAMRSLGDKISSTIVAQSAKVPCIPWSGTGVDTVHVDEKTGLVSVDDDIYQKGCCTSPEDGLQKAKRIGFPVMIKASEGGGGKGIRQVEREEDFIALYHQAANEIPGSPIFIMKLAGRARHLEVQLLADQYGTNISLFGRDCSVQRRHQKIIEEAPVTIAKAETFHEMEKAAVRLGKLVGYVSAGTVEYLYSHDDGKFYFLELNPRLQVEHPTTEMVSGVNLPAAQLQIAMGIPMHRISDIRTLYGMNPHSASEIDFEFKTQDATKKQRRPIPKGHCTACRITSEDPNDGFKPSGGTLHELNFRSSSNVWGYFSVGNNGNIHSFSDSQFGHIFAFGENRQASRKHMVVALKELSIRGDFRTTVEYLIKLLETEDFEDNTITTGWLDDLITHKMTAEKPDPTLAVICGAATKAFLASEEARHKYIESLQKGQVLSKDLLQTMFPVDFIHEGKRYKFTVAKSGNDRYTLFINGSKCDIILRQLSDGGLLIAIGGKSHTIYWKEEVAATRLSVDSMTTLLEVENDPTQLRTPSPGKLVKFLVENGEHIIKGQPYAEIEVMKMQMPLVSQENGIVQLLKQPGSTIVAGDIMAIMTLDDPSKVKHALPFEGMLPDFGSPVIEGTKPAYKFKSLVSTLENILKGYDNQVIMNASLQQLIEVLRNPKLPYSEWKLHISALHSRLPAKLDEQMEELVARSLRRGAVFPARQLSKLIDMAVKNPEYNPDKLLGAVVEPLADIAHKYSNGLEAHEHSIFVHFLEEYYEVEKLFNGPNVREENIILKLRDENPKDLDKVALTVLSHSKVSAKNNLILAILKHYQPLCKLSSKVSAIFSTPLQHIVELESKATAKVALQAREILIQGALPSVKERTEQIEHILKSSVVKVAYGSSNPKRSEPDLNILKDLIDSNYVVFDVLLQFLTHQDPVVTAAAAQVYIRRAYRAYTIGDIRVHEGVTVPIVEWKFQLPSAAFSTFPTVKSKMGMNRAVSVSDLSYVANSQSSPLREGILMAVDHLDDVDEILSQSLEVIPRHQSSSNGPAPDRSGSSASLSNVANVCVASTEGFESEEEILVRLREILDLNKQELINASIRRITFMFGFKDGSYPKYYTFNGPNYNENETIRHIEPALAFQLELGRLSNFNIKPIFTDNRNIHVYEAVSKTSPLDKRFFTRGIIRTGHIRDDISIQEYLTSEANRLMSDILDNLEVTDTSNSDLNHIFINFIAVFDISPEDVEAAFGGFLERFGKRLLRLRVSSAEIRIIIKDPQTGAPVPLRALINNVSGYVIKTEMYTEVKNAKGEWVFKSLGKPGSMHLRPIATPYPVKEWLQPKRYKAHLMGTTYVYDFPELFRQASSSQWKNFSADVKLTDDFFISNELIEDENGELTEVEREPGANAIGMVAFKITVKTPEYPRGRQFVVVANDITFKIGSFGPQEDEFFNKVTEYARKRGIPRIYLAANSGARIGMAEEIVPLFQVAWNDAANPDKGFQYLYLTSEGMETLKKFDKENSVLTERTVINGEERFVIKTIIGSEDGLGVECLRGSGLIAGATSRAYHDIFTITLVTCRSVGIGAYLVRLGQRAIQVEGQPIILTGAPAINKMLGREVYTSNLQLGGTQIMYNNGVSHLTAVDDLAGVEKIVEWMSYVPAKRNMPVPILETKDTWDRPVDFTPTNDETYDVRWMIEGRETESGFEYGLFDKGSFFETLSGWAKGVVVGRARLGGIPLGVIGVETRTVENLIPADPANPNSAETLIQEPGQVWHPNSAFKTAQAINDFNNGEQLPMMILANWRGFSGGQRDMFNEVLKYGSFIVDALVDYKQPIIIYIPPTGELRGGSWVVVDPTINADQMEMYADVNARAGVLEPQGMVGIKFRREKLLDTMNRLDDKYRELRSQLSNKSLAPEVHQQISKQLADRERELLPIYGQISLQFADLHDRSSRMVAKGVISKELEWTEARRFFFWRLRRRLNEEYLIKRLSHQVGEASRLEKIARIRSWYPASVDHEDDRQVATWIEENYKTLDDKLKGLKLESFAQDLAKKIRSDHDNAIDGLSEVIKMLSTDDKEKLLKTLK
Sequence of human (hACC2) (O00763 whole entry): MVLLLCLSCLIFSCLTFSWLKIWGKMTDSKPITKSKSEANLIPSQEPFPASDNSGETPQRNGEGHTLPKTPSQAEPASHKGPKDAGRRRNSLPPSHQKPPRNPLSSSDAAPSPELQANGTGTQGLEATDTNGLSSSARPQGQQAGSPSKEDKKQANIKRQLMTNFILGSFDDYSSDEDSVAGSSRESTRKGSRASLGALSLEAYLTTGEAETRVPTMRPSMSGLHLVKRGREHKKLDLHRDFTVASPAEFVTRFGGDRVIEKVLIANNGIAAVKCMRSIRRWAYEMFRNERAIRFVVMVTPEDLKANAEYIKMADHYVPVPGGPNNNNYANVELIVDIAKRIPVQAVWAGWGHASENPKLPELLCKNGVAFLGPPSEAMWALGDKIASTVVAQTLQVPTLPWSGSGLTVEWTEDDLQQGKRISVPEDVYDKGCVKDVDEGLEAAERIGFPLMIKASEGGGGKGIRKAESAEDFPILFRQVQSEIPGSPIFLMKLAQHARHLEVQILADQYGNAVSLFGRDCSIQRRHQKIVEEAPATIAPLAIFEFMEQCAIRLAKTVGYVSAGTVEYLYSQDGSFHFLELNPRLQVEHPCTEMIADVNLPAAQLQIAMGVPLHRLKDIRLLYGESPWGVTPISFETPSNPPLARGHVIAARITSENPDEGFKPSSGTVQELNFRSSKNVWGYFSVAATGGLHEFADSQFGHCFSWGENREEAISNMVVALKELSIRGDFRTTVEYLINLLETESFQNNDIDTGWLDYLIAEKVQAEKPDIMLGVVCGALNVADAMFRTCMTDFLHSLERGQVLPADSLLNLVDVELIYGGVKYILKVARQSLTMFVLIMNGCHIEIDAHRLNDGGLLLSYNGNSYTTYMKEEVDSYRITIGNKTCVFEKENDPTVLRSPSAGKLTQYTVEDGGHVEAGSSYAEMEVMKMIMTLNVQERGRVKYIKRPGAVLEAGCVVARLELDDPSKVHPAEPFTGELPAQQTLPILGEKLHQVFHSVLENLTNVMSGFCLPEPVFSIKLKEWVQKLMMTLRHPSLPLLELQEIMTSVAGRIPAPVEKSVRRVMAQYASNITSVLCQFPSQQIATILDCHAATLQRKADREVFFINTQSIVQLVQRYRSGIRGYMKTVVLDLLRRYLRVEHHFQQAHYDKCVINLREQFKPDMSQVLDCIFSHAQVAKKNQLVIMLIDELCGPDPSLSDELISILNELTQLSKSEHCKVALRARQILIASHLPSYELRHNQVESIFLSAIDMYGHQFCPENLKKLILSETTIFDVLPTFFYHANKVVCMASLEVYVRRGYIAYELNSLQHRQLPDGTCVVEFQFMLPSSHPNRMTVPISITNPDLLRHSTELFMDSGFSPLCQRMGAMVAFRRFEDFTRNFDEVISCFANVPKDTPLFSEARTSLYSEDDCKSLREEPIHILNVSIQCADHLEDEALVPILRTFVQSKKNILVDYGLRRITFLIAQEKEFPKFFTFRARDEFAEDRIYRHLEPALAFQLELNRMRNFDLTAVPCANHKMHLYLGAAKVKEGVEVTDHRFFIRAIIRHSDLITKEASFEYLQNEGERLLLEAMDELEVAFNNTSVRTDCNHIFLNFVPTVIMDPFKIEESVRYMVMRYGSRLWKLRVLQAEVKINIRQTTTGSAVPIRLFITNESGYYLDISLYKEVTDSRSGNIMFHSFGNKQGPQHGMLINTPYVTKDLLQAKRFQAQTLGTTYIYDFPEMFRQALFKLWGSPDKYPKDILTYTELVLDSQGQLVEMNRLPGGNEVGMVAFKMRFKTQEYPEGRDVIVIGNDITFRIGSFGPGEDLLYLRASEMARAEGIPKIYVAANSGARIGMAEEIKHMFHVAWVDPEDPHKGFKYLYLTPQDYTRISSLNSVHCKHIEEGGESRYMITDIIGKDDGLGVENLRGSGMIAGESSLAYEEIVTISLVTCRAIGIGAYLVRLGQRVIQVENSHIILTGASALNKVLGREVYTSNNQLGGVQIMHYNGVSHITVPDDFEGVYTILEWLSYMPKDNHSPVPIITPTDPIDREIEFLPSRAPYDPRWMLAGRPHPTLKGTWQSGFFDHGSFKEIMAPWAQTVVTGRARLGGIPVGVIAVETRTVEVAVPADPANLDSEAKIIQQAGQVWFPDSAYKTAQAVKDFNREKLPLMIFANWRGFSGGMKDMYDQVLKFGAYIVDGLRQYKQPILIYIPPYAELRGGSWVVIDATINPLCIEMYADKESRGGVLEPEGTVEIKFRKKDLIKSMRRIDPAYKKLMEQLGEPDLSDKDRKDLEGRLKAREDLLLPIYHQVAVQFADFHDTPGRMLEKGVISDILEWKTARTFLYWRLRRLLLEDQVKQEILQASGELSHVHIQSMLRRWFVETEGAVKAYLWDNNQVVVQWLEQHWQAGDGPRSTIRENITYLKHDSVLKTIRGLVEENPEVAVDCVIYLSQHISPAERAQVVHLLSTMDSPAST

SMILES	MIC [1, 11]	MIC [1, 12]	MIC [2, 13]	MIC [2, 14]	IC90 [3, 15]	IC90 [3, 16]	pIC50 ([4]; Table 2a)	pIC50 ([4]; Table 2b, additional results)	IC90 [5, 17]	IC90 [5, 18]	IC90 [6, 19]	IC90 [6, 20]	IC90 [7, 21]	IC90 [7, 22]	Concentration at 90% Inhibition Fm [8, 23]	IC90 [8]	IC90 [9, 24]	IC90 [9, 25]	pIC50 ([10]; Table 2a)	pIC50 ([10]; Table 2b, additional results)	other results
COc1ccc(F)cc1[C@H](Cn1c(=O)n([C@@H](C)C(=O)NC(C)C)c(=O)c2c(C)c(-n3nccn3)sc21)OCCO [Compound I-88, (S)-2-(1-((R)-2-(5-fluoro-2-methoxyphenyl)-2-(2-hydroxyethoxy)ethyl)-5-methyl-2,4-dioxo-6-(2H-1,2,3-triazol-2-yl)-1,4-dihydro-thieno[2,3-d]pyrimidin-3(2H)-yl)-N-isopropylpropanamide]	0.25 to 1 µg/mL (≈ 0.435 to 1.74 µM)	1.01 to 2 µg/mL (≈ 1.76 to 3.48 µM)	1.1 to 2 µg/mL (≈ 1.91 to 3.48 µM)	1.01 to 2 µg/mL (≈ 1.76 to 3.48 µM)	0.08 µg/mL (≈ 0.139 µM)	0.08 µg/mL (≈ 0.139 µM)	8.30 to 9.00	9.00 to 9.52	2 µg/mL (≈ 3.48 µM)	2 µg/mL (≈ 3.48 µM)	2 µg/mL (≈ 3.48 µM)	2 µg/mL (≈ 3.48 µM)	2 µg/mL (≈ 3.48 µM)	10 µg/mL (≈ 17.4 µM)	AA (compound concentration of 0.08 ppm at 90% inhibition of fungal pathogens)	0.08 µg/mL (≈ 0.139 µM)	2 µg/mL (≈ 3.48 µM)	2 µg/mL (≈ 3.48 µM)	8.00 to 8.30	8.00 to 8.30	
COc1ccc(F)cc1[C@H](Cn1c(=O)n([C@H](C)C(=O)NC(C)C)c(=O)c2c(C)c(-n3nccn3)sc21)OCCO [Compound I-89, (R)-2-(1-((R)-2-(5-fluoro-2-methoxyphenyl)-2-(2-hydroxy-ethoxy)ethyl)-5-methyl-2,4-dioxo-6-(2H-1,2,3-triazol-2-yl)-1,4-dihydrothieno[2,3-d]pyrimidin-3(2H)-yl)-N-isopropylpropanamide]	2.1 to 4 µg/mL (≈ 3.65 to 6.96 µM)	1.01 to 2 µg/mL (≈ 1.76 to 3.48 µM)	2.1 to 4 µg/mL (≈ 3.65 to 6.96 µM)	1.01 to 2 µg/mL (≈ 1.76 to 3.48 µM)	2 µg/mL (≈ 3.48 µM)	2 µg/mL (≈ 3.48 µM)	8.30 to 9.00	8.30 to 9.00	0.4 µg/mL (≈ 0.696 µM)	0.4 µg/mL (≈ 0.696 µM)	> 50 µg/mL	> 50 µg/mL	> 50 µg/mL	> 50 µg/mL	AA (compound concentration of 0.08 ppm at 90% inhibition of fungal pathogens)	0.08 µg/mL (≈ 0.139 µM)	2 µg/mL (≈ 3.48 µM)	2 µg/mL (≈ 3.48 µM)	7.40 to 8.00	8.00 to 8.30	
COc1ccc(F)cc1[C@H](Cn1c(=O)n(C(C)(C)C(=O)NC(C)C)c(=O)c2c(C)c(-n3nccn3)sc21)OCCC(N)=O [Compound I-90, (R)-2-(1-(2-(3-amino-3-oxopropoxy)-2-(5-fluoro-2-metho-xyphenyl)ethyl)-5-methyl-2,4-dioxo-6-(2H-1,2,3-triazol-2-yl)-1,4-dihydro-thieno[2,3-d]pyrimidin-3(2H)-yl)-N-isopropyl-2-methylpropanamide]							8.30 to 9.00	8.30 to 9.00											7.40 to 8.00	7.40 to 8.00	MIC [1, 26]: 1.1 to 2 µg/mL (≈ 1.79 to 3.25 µM); MIC [1, 27]: 0.25 to 1 µg/mL (≈ 0.406 to 1.62 µM); MIC [2, 28]: 2.1 to 4 µg/mL (≈ 3.41 to 6.5 µM); MIC [2, 29]: 0.25 to 1 µg/mL (≈ 0.406 to 1.62 µM); IC90 [3, 30]: 2 µg/mL (≈ 3.25 µM); IC90 [3, 31]: 2 µg/mL (≈ 3.25 µM); IC90 [5, 32]: 2 µg/mL (≈ 3.25 µM); IC90 [5, 33]: 2 µg/mL (≈ 3.25 µM); IC90 [6, 34]: > 50 µg/mL; IC90 [6, 35]: > 50 µg/mL; IC90 [7, 36]: > 50 µg/mL; IC90 [7, 37]: > 50 µg/mL; IC90 [8, 23]: 0.4 µg/mL (≈ 0.65 µM); IC90 [8, 38]: 0.4 µg/mL (≈ 0.65 µM); IC90 [9, 39]: 0.4 µg/mL (≈ 0.65 µM); IC90 [9, 40]: 0.4 µg/mL (≈ 0.65 µM)
COc1ccc(F)cc1[C@H](Cn1c(=O)n(C(C)(C)C(=O)NC(C)C)c(=O)c2c(C)c(-n3nccn3)sc21)OCCC#N [Compound I-91, (R)-2-(1-(2-(2-cyanoethoxy)-2-(5-fluoro-2-methoxy-phenyl)ethyl)-5-methyl-2,4-dioxo-6-(2H-1,2,3-triazol-2-yl)-1,4-dihydro-thieno[2,3-d]pyrimidin-3(2H)-yl)-N-isopropyl-2-methylpropanamide]							8.30 to 9.00	8.30 to 9.00											7.40 to 8.00	7.40 to 8.00	MIC [1, 26]: 0.06 to 0.24 µg/mL (≈ 0.1 to 0.402 µM); MIC [1, 27]: 0.25 to 1 µg/mL (≈ 0.418 to 1.67 µM); MIC [2, 28]: 0.06 to 0.24 µg/mL (≈ 0.1 to 0.402 µM); MIC [2, 29]: 0.25 to 1 µg/mL (≈ 0.418 to 1.67 µM); IC90 [3, 30]: 0.08 µg/mL (≈ 0.134 µM); IC90 [3, 31]: 0.08 µg/mL (≈ 0.134 µM); IC90 [5, 32]: 0.4 µg/mL (≈ 0.669 µM); IC90 [5, 33]: 0.4 µg/mL (≈ 0.669 µM); IC90 [6, 34]: 2 µg/mL (≈ 3.35 µM); IC90 [6, 35]: 10 µg/mL (≈ 16.7 µM); IC90 [7, 36]: > 50 µg/mL; IC90 [7, 37]: > 50 µg/mL; IC90 [8, 23]: 0.08 µg/mL (≈ 0.134 µM); IC90 [8, 38]: 0.08 µg/mL (≈ 0.134 µM); IC90 [9, 39]: 0.08 µg/mL (≈ 0.134 µM); IC90 [9, 40]: 0.08 µg/mL (≈ 0.134 µM)
